Our source for the Observed effect and inhibition of growth values is US20120088661A1, “FUNGICIDAL MIXTURES” (BASF SE, priority 2009, published 2012).

Where two headings read alike, the source gives them in different places.

One assay relates to Phytophthora infestans. Nature of the assay: microbe, parasite or virus in culture. It is filed as cell-based. The note with it: for inhibition of growth at 1 ppm / inhibition of growth at 0.016 ppm: Phytophthora infestans; for inhibition of growth at 1 ppm: read-out: Observed effect, 1 ppm; for inhibition of growth at 0.016 ppm: read-out: Observed effect, 0.016 ppm.
The next assay deals with Septoria glycines. Nature of the assay: Use Example M8: activity against Septoria glycines in the microtiter test (Septgl). It is filed as cell-based.
Another assay relates to Colleotrichum truncatum. Nature of the assay: Use Example M9: activity against Colleotrichum truncatum in the microtiter test (Colltr). The assay is classed as cell-based.
Assay [1] relates to Botrytis cinerea. In words: Use Example M2: activity against the gray mold pathogen Botrytis cinerea in the microtiter test (Botrci). The assay is classed as cell-based.
Another assay concerns Septoria tritici. Nature of the assay: Use Example G5: greenhouse, protective activity against Septoria leaf blotch of wheat caused by Septoria tritici (Septtr P1). It is filed as in vivo, Septoria tritici on wheat seedlings. Here is the method:
(§1) The active compounds were prepared separately or jointly as a stock solution with 25 mg of active compound which was made up to 10 ml using a mixture of acetone and/or DMSO and the emulsifier Wettol EM 31 (wetting agent having emulsifying and dispersing action based on ethoxylated alkylphenols) in a volume ratio of solvent:emulsifier of 99:1. The mixture was then made up with water to 100 ml. This stock solution was diluted with the solvents/emulsifier/water mixture described to give the active compound concentrations stated below. Alternatively, the active compounds were used as commercial finished formulation and diluted with water to the stated active compound concentration. The active compound orysastrobin was used as a commercially available formulation, and diluted with water with reference to the active compound.
(§2) The visually determined values for the percentage of infected leaf area were initially converted into a mean value and then converted into efficacies in % of the untreated control. An efficacy of 0 means the same degree of infection as in the untreated control, an efficacy of 100 means 0% infection. The expected efficacies for the active compound combinations were determined using Colby's formula (Colby, S. R. “Calculating synergistic and antagonistic responses of herbicide combinations”, Weeds, 15, pp. 20-22, 1967) and compared to the observed efficacies.
Leaves of potted wheat seedlings were sprayed to run off point with an aqueous suspension having the active compound concentration stated below. 24 hours after the spray coating had dried on, they were inoculated with an aqueous spore suspension of Septoria tritici. The test plants were then placed in a greenhouse at temperatures between 18 and 22° C. and a relative atmospheric humidity close to 100% for four days and then at temperatures between 18 and 22° C. and an atmospheric humidity of about 70%. After 21 days, the extent of the development of the disease was determined visually in % infection of the total leaf area.

The subject of assay [2] is Botrytis cinerea. Nature of the assay: Use Example G2: greenhouse, activity against grey mold on bell pepper leaves caused by Botrytis cinerea, 1 day protective application (Botrci P1). The assay is classed as in vivo, Botrytis cinerea on bell pepper seedlings. The method, then:
as §1, §2
Bell pepper seedlings were, after 2-3 leaves were well developed, sprayed to run off point with an aqueous suspension having the active compound concentrations stated below. The next day, the treated plants were inoculated with a spore suspension of Botrytis cinerea in a 2% biomalt solution. The test plants were then placed in a dark climatized chamber at 22 to 24° C. and high atmospheric humidity. After 5 days, the extent of the fungal infection on the leaves could be determined visually in %.

For the next assay, the system named is Phakopsora pachyrhizi. Nature of the assay: Use Example G4: greenhouse, curative activity against soybean rust caused by Phakopsora pachyrhizi (Phakpa K4). It is filed as in vivo, Phakopsora pachyrhizi on soybean seedlings. The method, then: as §1, §2
Leaves of potted soybean seedlings were inoculated with a spore suspension of soybean rust (Phakpsora pachyrhizi). The pots were then placed in a chamber of high atmospheric humidity (90 to 95%) and 20 to 24° C. for 24 hours. During this time, the spores germinated and the germ tubes penetrated into the leaf tissue. The infected plants were then cultivated further in a greenhouse at temperatures between 23 and 27° C. and 60 to 80% relative atmospheric humidity. After three days, the plants were sprayed to run off point with the active compound solution described above at the active compound concentration stated below. After the spray coating had dried on, the test plants were cultivated in a greenhouse at temperatures between 23 and 27° C. and 60 to 80% relative atmospheric humidity for a further 10 days. The extent of the rust fungus development on the leaves was then determined visually in %.

The next assay deals with Alternaria solani. The assay is classed as in vivo, Alternaria solani on tomato plants. The following applies: 16 ppm.
The mark [3] stands for this setting: Septoria glycines, 0.016 ppm, read-out: Observed effect.
Where [4] appears, read: Septoria glycines, 1 ppm, read-out: Observed effect.
The mark [5] stands for this setting: Septoria glycines, read-out: Observed effect.
[6] abbreviates: Septoria glycines, 0.25 ppm, read-out: Observed effect.
The mark [7] stands for this setting: Septoria glycines, 0.063 ppm, read-out: Observed effect.

“2-[trans-2-(3,4-difluorophenyl)-3-(2-trifluoromethylphenyl)oxiranylmethyl]-2,4-dihydro-[1,2,4]triazole-3-thione [Example I-4]”: the Observed effect with Phytophthora infestans (63 ppm) is 31%; in the assay on Septoria glycines (16 ppm), 5%; with Septoria glycines (63 ppm), 23%; in the assay on Colleotrichum truncatum (63 ppm) it was 26%.
`CSc1ncnn1C[C@]1(c2ccc(F)c(F)c2)O[C@H]1c1ccccc1Cl` (relative stereo) [Example I-5, 1-[trans-3-(2-chlorophenyl)-2-(3,4-difluorophenyl)oxiranylmethyl]-5-methylsulfanyl-1H-[1,2,4]triazole] came in with an Observed effect in the assay on Botrytis cinerea [1] (16 ppm) of 9%.
Consider “2-[trans-3-(2-chlorophenyl)-2-(2,4-difluorophenyl)oxiranylmethyl]-2,4-dihydro-[1,2,4]triazole-3-thione [Example I-1]”, for which the Observed effect in the assay on Phytophthora infestans (1 ppm) was 3%; in the assay on Phytophthora infestans (16 ppm), 14%; in the assay on Phytophthora infestans (63 ppm) it was 53%; in the assay with Septoria glycines (16 ppm), 30%; in the assay with Septoria glycines (63 ppm), 61%; in the assay on Colleotrichum truncatum (1 ppm) it was 5%. Further, the Observed effect in the assay with Colleotrichum truncatum (16 ppm) came to 6%; in the assay on Colleotrichum truncatum (63 ppm), 30%; in the assay on Septoria tritici (4 ppm) it was 41%; in the assay on Botrytis cinerea [2] (4 ppm), 2%.
On to `Cc1cc(C2CC2)nc(Nc2ccccc2)n1` [II-36, cyprodinil], for which the Observed effect with Septoria tritici (4 ppm) is listed as 0%.
In the assay on Botrytis cinerea [1] (4 ppm), “1-[trans-2-(2,4-difluorophenyl)-3-(2-fluorophenyl)oxiranylmethyl]-5-methylsulfanyl-1H-[1,2,4]triazole [Example I-6]” registered an Observed effect of 9%.
On to `O=[N+]([O-])c1cc(C(F)(F)F)c(Cl)c([N+](=O)[O-])c1Nc1ncc(C(F)(F)F)cc1Cl` [II-40, fluazinam], for which the inhibition of growth at 1 ppm in the assay on Phytophthora infestans and in the assay on Septoria glycines (setting [4]) was 24% in each case. Besides, in the assay on Septoria glycines (setting [3]), the inhibition of growth at 0.016 ppm was found to be 7%.
Turning to `CO/C=C(/C(=O)OC)c1ccccc1Oc1cc(Oc2ccccc2C#N)ncn1` [II-49, azoxystrobin], the Observed effect in the assay with Septoria glycines (0.016 ppm) worked out at 20%.
For the molecule `CC(Cc1ccc(C(C)(C)C)cc1)CN1C[C@@H](C)O[C@@H](C)C1` (stereo partly shown) [II-15, fenpropimorph], the inhibition of growth at 1 ppm in the assay with Phytophthora infestans was 26%. Moreover, in the assay on Septoria glycines (setting [5]), the inhibition of growth at 0.004 ppm worked out at 1%. In the assay with Septoria glycines (setting [6]), the inhibition of growth at […] was 71%.
Consider `N#Cc1c(Cl)c(Cl)c(Cl)c(C#N)c1Cl` [II-21, chlorothalonil], for which, in the assay with Septoria glycines (setting [7]), the inhibition of growth at […] was 6%. Moreover, the Observed effect in the assay on Septoria tritici (4 ppm) was found to be 0%; in the assay with Botrytis cinerea [1] (1 ppm) it was 40%.
Take `Cc1ccc(C(C)NC(=O)[C@@H](NC(=O)OC(C)C)C(C)C)cc1` (stereo partly shown) [II-35, iprovalicarb]: the Observed effect with Septoria glycines (1 ppm) stood at 3%.
As for `COC(=O)N(OC)c1ccccc1COc1ccn(-c2ccc(Cl)cc2)n1` [II-9, pyraclostrobin], the inhibition of growth at 0.016 ppm stood at 13% in the assay on Phytophthora infestans and 69% in the assay with Septoria glycines (setting [3]). In addition, the results for the Observed effect with Colleotrichum truncatum (0.016 ppm) and in the assay with Botrytis cinerea [1] (0.016 ppm) were 7% and 8%, respectively.
As for “2-[trans-3-(2-chlorophenyl)-2-(3,4-difluorophenyl)oxiranylmethyl]-2H-[1,2,4]triazole-3-thiol [Example I-3]”, the Observed effect came to 31% with Phytophthora infestans (63 ppm), 8% in the assay on Botrytis cinerea [1] (4 ppm) and 25% in the assay with Botrytis cinerea [1] (63 ppm).
`Fc1ccc([C@]2(Cn3cncn3)O[C@H]2c2ccccc2Cl)cc1` (racemic) [II-1, epoxiconazole]: the inhibition of growth at […] in the assay on Septoria glycines (setting [7]) was 2%.
Regarding `CC1(C)CCC(Cc2ccc(Cl)cc2)C1(O)Cn1cncn1` (stereo not shown) [II-2, metconazole], the inhibition of growth at […] in the assay with Septoria glycines (setting [6]) is 19%.
`Cc1ccccc1[C@@H]1O[C@]1(Cn1nc[nH]c1=S)c1ccc(F)c(F)c1` (relative stereo) [Example I-2, 2-[trans-2-(3,4-difluorophenyl)-3-o-tolyloxiranylmethyl]-2,4-dihydro-[1,2,4]triazole-3-thione]: the Observed effect in the assay on Septoria glycines (63 ppm) is reported as 40%; in the assay with Colleotrichum truncatum (63 ppm) it was 38%.
In the case of `CC(C)NC(=O)N1CC(=O)N(c2cc(Cl)cc(Cl)c2)C1=O` [II-17, iprodione], the inhibition of growth at 1 ppm in the assay with Septoria glycines (setting [4]) stood at 0%.
`N#Cc1sc2c(=O)c3ccccc3c(=O)c=2sc1C#N` [II-47, dithianon]: in the assay on Septoria glycines (setting [5]), the inhibition of growth at 0.004 ppm amounted to 3%. The inhibition of growth at 0.016 ppm with Septoria glycines (setting [3]) amounted to 37%. The same molecule registered an Observed effect in the assay with Colleotrichum truncatum (0.016 ppm) of 3%.
For `CCNC(=O)NC(=O)/C(C#N)=N/OC` [cymoxanil], in the assay with Septoria glycines (Septoria glycines, 16 ppm, read-out: Observed effect), the inhibition of growth at 16 ppm turned out to be 27%.
As to `OC(c1ccc(Cl)cc1)(c1cncnc1)c1ccccc1Cl` (stereo not shown) [fenarimol], the figures for the inhibition of growth at 0.016 ppm in the assay with Phytophthora infestans and in the assay with Septoria glycines (setting [3]) were 5% and 11%, respectively. Moreover, the inhibition of growth at 1 ppm worked out at 28% in the assay on Phytophthora infestans and 39% with Septoria glycines (setting [4]).
As to `N#CSc1ncnn1C[C@]1(c2ccc(F)cc2F)O[C@H]1c1ccccc1Cl` (relative stereo) [Example I-8, 1-[trans-3-(2-chlorophenyl)-2-(2,4-difluorophenyl)oxiranylmethyl]-5-thiocyanato-1H-[1,2,4]triazole], the Observed effect in the assay on Phytophthora infestans (4 ppm) stood at 7%; in the assay on Botrytis cinerea [1] (16 ppm), 19%.
As to `CCCN(CCOc1c(Cl)cc(Cl)cc1Cl)C(=O)n1ccnc1` [II-46, prochloraz], the Observed effect with Phakopsora pachyrhizi (1 ppm) is 7%; in the assay on Septoria tritici (1 ppm), 0%. Further, the inhibition of growth at 0.001 ppm in the assay on Septoria glycines (setting [5]) stood at 11%.
`CSc1ncnn1C[C@]1(c2ccc(F)cc2F)O[C@H]1c1ccccc1Cl` (relative stereo) [Example I-7, 1-[trans-3-(2-chlorophenyl)-2-(2,4-difluorophenyl)oxiranylmethyl]-5-methylsulfanyl-1H-[1,2,4]triazole] had an Observed effect in the assay on Botrytis cinerea [1] (16 ppm) of 25%.
Consider `COc1ccc(/C(=C\C(=O)N2CCOCC2)c2ccc(F)cc2)cc1OC` [flumorph], for which the Observed effect in the assay on Septoria glycines (16 ppm) came out at 21%.
As for `N#Cc1c[nH]cc1-c1cccc2c1OC(F)(F)O2` [II-38, fludioxonil], the inhibition of growth at 1 ppm in the assay on Phytophthora infestans is 27%.
For the molecule `CO/N=C(/C(=O)OC)c1ccccc1COc1ccccc1C` [II-8, kresoxim-methyl], the Observed effect in the assay on Colleotrichum truncatum (1 ppm) was found to be 27%; in the assay on Colleotrichum truncatum (4 ppm), 37%.
For `O=C1C2CC=CCC2C(=O)N1SC(Cl)(Cl)Cl` (stereo not shown) [captan], the Observed effect in the assay with Phakopsora pachyrhizi (1 ppm), with Phakopsora pachyrhizi (4 ppm) and with Septoria tritici (16 ppm) was 0% in each case.
As for `COCC(=O)N(c1c(C)cccc1C)C(C)C(=O)OC` (stereo not shown) [II-14, metalaxyl], in the assay with Septoria glycines (Septoria glycines, 4 ppm, read-out: Observed effect), the inhibition of growth at 4 ppm is 18%.
In the case of `CNC(=O)/C(=N/OC)c1ccccc1CO/N=C(C)/C(=N/OC)C(/C)=N/OC` [II-10, orysastrobin], the figures for the Observed effect with Phytophthora infestans (1 ppm), in the assay with Colleotrichum truncatum (4 ppm) and in the assay on Botrytis cinerea [1] (1 ppm) were 22%, 29% and 13%, respectively.
With `CC(C)(C)C(O)(CCc1ccc(Cl)cc1)Cn1cncn1` (stereo not shown) [II-3, tebuconazole], the Observed effect in the assay with Botrytis cinerea [2] (1 ppm) came to 0%.
Consider `CC(C)NC(=O)N1CC(=O)N(c2cc(Cl)cc(Cl)c2)C1=O` [iprodion], for which the Observed effect in the assay on Colleotrichum truncatum (1 ppm) stood at 9%.
In the case of `COC(=O)C(C)N(C(=O)Cc1ccccc1)c1c(C)cccc1C` (stereo not shown) [benalaxyl], the Observed effect in the assay on Septoria tritici (250 ppm) came out at 0%; in the assay on Alternaria solani, 2%.
As for `CO/N=C(/C1=NOCCO1)c1ccccc1Oc1ncnc(Oc2ccccc2Cl)c1F` [II-57, fluoxastrobin], the Observed effect with Phakopsora pachyrhizi (1 ppm) came out at 15%.
